Experimental data: patent US5912259A, “Method for treating and preventing neurodegenerative disorders by administering a thiazolidinone” (Warner-Lambert Company, priority 1998, dated 1999)
Read-outs that look alike come from different tables or passages of the source.

Key:
[1] = system: experimental autoimmune encephalomyelitis (EAE)
Experimental: The thiazolidinone was evaluated in a mouse model of experimental autoimmune encephalomyelitis (EAE). The compound was administered orally to mice sensitized with a fragment of mouse myelin basic protein to induce EAE. Two experiments were conducted using the same protocol and neurological evaluations. Test animals were dosed for 21 days, beginning 4 hours before sensitization on Day 1. The effects of the thiazolidinone were compared to a control group of mice sensitized identically and dosed with vehicle alone. Neurological evaluations continued after cessation of drug treatment. The values reported in Tables 1 and 2 below include responses during drug treatment only.
The thiazolidinone was homogenized manually with an aliquot of warm vehicle (0.5% hydroxypropyl methylcellulose with 0.2% Tween 80in water) in glass mortar tubes and homogenizing pestle. The smooth drug paste was gradually suspended in vehicle. Mice were dosed with drug and/or vehicle, […] in groups of ten (Experiment 1) or twenty (Experiment 2). Mice were dosed from Experiment Day 1 to Day 21. A sham-sensitized group was similarly dosed with vehicle or thiazolidinone 30 mg/kg (Experiment 1).
Female mice, strain PL/J(F1)×SJL/J from Jackson Labs, were sensitized s.c. (0.05 cc×2) at the base of the tail with an emulsion containing equal parts of mouse myelin basic protein (MBP) fragment (amino acids 1-9 of the N-terminus of MBP) in saline and Difco Complete Freund's Adjuvant (CFA) fortified with heat killed desiccated Mycobacteria tuberculosis (MT). Each mouse received 300 μg of the MBP fragment (230 μg free base) and 200 μg MT followed by retrobulbar (i.v.) injection of 200 ng of B. pertussis toxin in 0.2 cc of saline. Forty-eight hours later, mice received a second injection of B. pertussis toxin. Mice in Experiment 1 were 8 to 9 weeks old; mice in Experiment 2 were 11 weeks old.
Animals were weighed and evaluated for symptoms of EAE before sensitization and frequently for 21 days. EAE score: (0.5=slight limp tail, 1=limp tail or slow to right, 1.5=slight limp tail and slow to right, 2=paresis/mild paralysis or incontinence, 2.5=mild paralysis and slow to right or complete paralysis (one hind limb), 3=hind limb paralysis (both), 3.5=hind limb paralysis (both) and limp torso; 4=additional fore limb paralysis, 4.5=head movement only, 5=moribund, death after previous EAE symptoms). Evaluators were blinded as to drug treatments and previous behavioral scores.
Disease symptoms were compared among groups for EAE severity, incidence, time to onset, cumulative score, deaths, and weight loss. Peak EAE score: the mean of highest score of each mouse in a group, independent of duration of symptoms; EAE incidence: the mean number of mice showing symptoms of EAE, defined as having EAE scores on any three consecutive days that total≥3.0. EAE deaths: An animal that died must have presented previous evidence of an EAE score greater than 0.5; EAE onset: the first of a 3-day series scoring a total of≥3.0. A Cumulative EAE score is calculated for each animal. A mean of all animals' cumulative score is then determined for each day. Maximum weight loss: the mean of the lowest weight for each animal in a group. (Note: The Cumulative EAE score and the Maximum weight loss can be influenced by death which eliminates severely diseased animals. The number of days that animals are scored also affects the cumulative score and can only be compared "within-trial"). Mice that die from dosing trauma or with no previous symptoms of EAE are deleted from the study. Experimental groups were assumed to be similar and were compared for statistical significance by a two-tailed t-test (p≤0.05).

[2] = system: inducible nitric oxide synthase (iNOS), BV-2 microglia; assay: Nitric oxide production in LPS-activated BV-2 microglia (Griess reaction); format: cell-based; conditions: Mus musculus, LPS 4 μg/mL, 16 hours, read-out: IC50, inhibition of nitric oxide production
Experimental: (§1) BV-2 microglia were grown in 6-well tissue culture plates in DMEM/F12 media supplemented with 10% fetal calf serum. Prior to activation, cells were given fresh media containing various amounts of thiazolidinone. One hour after drug treatment, microglia were activated with lipopolysaccharide (LPS, 4 μg/mL) and placed in an incubator at 37° C. in an atmosphere containing 5% CO2. After 16 hours, cultures were evaluated for inducible nitric oxide synthase (iNOS) activity and expression. iNOS activity was determined using the Griess reaction. Cell-free culture media was mixed with an equal volume of Griess reagent (one volume of 1.0% sulfanilamide in 5% phosphoric acid mixed with one volume of 0.1% naphthylenediamine dihydrochloride in water) and incubated for 5 minutes at room temperature. Absorbance was measured at 560 nm and the concentration within a sample was determined using sodium nitrite as standard. iNOS expression was evaluated by extracting cellular protein and performing Western blot analysis using a monoclonal antibody specific for iNOS.

[3] = system: nitric oxide synthase, mixed cortical cultures; assay: Nitric oxide synthase activity / NO production in mixed cortical cultures; format: cell-based, fetal Sprague-Dawley rat
Experimental: as §1
Experiments using mixed cortical cultures were performed as described above. […]
Cerebral ischemia can be modeled in vitro by lowering oxygen and glucose in the media of cortical neurons. […] Cultures were read every 2 to 3 days thereafter by half volume (100 μL) replacement with DME/F12 (10% horse serum).

[4] = sensitized, 30 mg oral, (a) deaths designated due to EAE
[5] = sensitized, 30 mg oral, (b) deaths due to unknown causes removed

CC(C)(C)c1cc(/C=C2\SC(N)=NC2=O)cc(C(C)(C)C)c1O [CI-1004, (Z)-5-[[3,5-bis(1,1-dimethylethyl)-4-hydroxyphenyl]methylene]-2-imino-4-thiazolidinone methanesulfonate]
deaths at ≤Day 10 ([1]; mouse, in vivo, 30 mg/kg): three deaths | Cumulative Score ([1]; sensitized, 3 mg oral): 20.3 ± 1.7 | Deaths ([1]; sensitized, 3 mg oral): 2/10 | EAE Incidence ([1]; sensitized, 3 mg oral): 10/10 | EAE Onset ([1]; sensitized, 3 mg oral): 12.2 ± 0.3 days | EAE Peak Score ([1]; sensitized, 3 mg oral): 3.7 ± 0.3 | Cumulative Score ([1]; sensitized, 10 mg oral): 10.9 ± 1.7 | Deaths ([1]; sensitized, 10 mg oral): 2/10 | EAE Incidence ([1]; sensitized, 10 mg oral): 7/10 | EAE Onset ([1]; sensitized, 10 mg oral): 12.1 ± 1.5 days | EAE Peak Score ([1]; sensitized, 10 mg oral): 3.0 ± 0.6 | daily EAE scores, incidence, cumulative EAE scores, weight loss ([1]; sensitized, 10 mg/kg): showed a suggestion of inhibition of daily EAE scores, reduced incidence, cumulative EAE scores, and weight loss | Cumulative Score [1, 4]: 10.9 ± 3.4 | Deaths [1, 4]: 3/9 | EAE Incidence [1, 4]: 7/9 | EAE Onset [1, 4]: 12.7 ± 2.2 days | EAE Peak Score [1, 4]: 3.1 ± 0.6 | Cumulative Score [1, 5]: 9.4 ± 3.4 | Deaths [1, 5]: 0/6 | EAE Incidence [1, 5]: 4/6 | EAE Onset [1, 5]: 16.0 ± 2.1 days | EAE Peak Score ([1]; sensitized, 30 mg oral, (b) deaths due to unknown causes removed, p < 0.05): 2.1 ± 0.6 | overall EAE symptoms ([1]; sensitized, 30 mg/kg, Method A): no significant reduction in overall EAE symptoms | peak EAE score and weight loss ([1]; sensitized, 30 mg/kg, Method B): significant reduction in the peak EAE score and weight loss | daily EAE scores Days 10 to 21 ([1]; sensitized, 30 mg/kg, Methods A and B): tendency to reduced daily EAE scores from Days 10 to 21, although a statistically significant reduction was seen only on Day 15 (p≤0.05) | EAE scores versus vehicle controls to Day 21 ([1]; sensitized, 3 or 10 mg/kg): did not show significantly reduced EAE scores | Cumulative Score ([1]; sham-sensitized, 30 mg oral): 1.4 ± 0.6 | Deaths ([1]; sham-sensitized, 30 mg oral): 0/9 | EAE Incidence ([1]; sham-sensitized, 30 mg oral): 0/9 | EAE Peak Score ([1]; sham-sensitized, 30 mg oral): 0.8 ± 0 | EAE symptoms and deaths in sham-sensitized mice ([1]; sham-sensitized, 30 mg/kg): showed little symptoms of disease and no deaths | IC50 [2]: 2400 nM | increase in nitric oxide synthase activity on LPS activation ([3]; 10 μM, LPS-activated): prevented the increase in nitric oxide synthase activity | basal NO production ([3]; non-LPS activated cultures): significant decrease in basal NO production
